Reference: PubChem BioAssay (NCI)
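Method: 48-hour compound exposure of cells in 96-well plates, five concentrations, linear interpolation of endpoints. TGI: concentration producing complete growth inhibition.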

Key:
Experiment in all cases: NCI tumour cell line growth inhibition, 48 h
CCRF-CEM leukemia = system: CCRF-CEM leukemia
HOP-62 NSCLC = system: HOP-62 NSCLC
HCT-116 colon = system: HCT-116 colon
SF-295 CNS = system: SF-295 CNS
MOLT-4 leukemia = system: MOLT-4 leukemia
NCI-H23 lung = system: NCI-H23 lung
T-47D breast = system: T-47D breast
SF-539 CNS = system: SF-539 CNS
SK-OV-3 ovarian = system: SK-OV-3 ovarian
RXF 393 renal = system: RXF 393 renal
HCT-15 colon = system: HCT-15 colon
K-562 leukemia = system: K-562 leukemia
OVCAR-8 ovarian = system: OVCAR-8 ovarian
A549 NSCLC = system: A549 NSCLC
MALME-3M melanoma = system: MALME-3M melanoma
EKVX NSCLC = system: EKVX NSCLC
SK-MEL-28 melanoma = system: SK-MEL-28 melanoma
LOX IMVI melanoma = system: LOX IMVI melanoma
COLO 205 colon = system: COLO 205 colon
ACHN renal = system: ACHN renal
A498 renal = system: A498 renal
SK-MEL-2 melanoma = system: SK-MEL-2 melanoma
NCI-H226 lung = system: NCI-H226 lung
TK-10 renal = system: TK-10 renal
HT29 colon = system: HT29 colon
SK-MEL-5 melanoma = system: SK-MEL-5 melanoma
M14 melanoma = system: M14 melanoma
SNB-19 CNS = system: SNB-19 CNS
OVCAR-3 ovarian = system: OVCAR-3 ovarian
MCF7 breast = system: MCF7 breast
U251 CNS = system: U251 CNS
HS 578T breast = system: HS 578T breast
OVCAR-5 ovarian = system: OVCAR-5 ovarian
NCI-H522 lung = system: NCI-H522 lung
BT-549 breast = system: BT-549 breast
MDA-MB-231 breast = system: MDA-MB-231 breast
HL-60(TB) leukemia = system: HL-60(TB) leukemia
CAKI-1 renal = system: CAKI-1 renal
MDA-N = system: MDA-N
SF-268 CNS = system: SF-268 CNS
NCI/ADR-RES ovarian = system: NCI/ADR-RES ovarian
PC-3 prostate = system: PC-3 prostate
786-0 renal = system: 786-0 renal
HOP-92 NSCLC = system: HOP-92 NSCLC
SNB-75 CNS = system: SNB-75 CNS
SN12C renal = system: SN12C renal
IGROV1 ovarian = system: IGROV1 ovarian
SR leukemia = system: SR leukemia
KM12 colon = system: KM12 colon
DU-145 prostate = system: DU-145 prostate
MDA-MB-435 = system: MDA-MB-435
UACC-257 melanoma = system: UACC-257 melanoma
UO-31 renal = system: UO-31 renal
NCI-H460 lung = system: NCI-H460 lung
SW-620 colon = system: SW-620 colon
UACC-62 melanoma = system: UACC-62 melanoma
RPMI-8226 leukemia = system: RPMI-8226 leukemia
OVCAR-4 ovarian = system: OVCAR-4 ovarian

Q: Which results are given for C#CC1(O)C(COP(=O)(O)OC(COCCCCCCCCCCCCCCCCCC)COP(=O)(O)OCC2OC(n3cc(C)c(=O)[nH]c3=O)CC2N=[N+]=[N-])OC(n2ccc(N)nc2=O)C1O (stereo unspecified)?
A: TGI (CCRF-CEM leukemia): 18.9 µM; TGI (HOP-62 NSCLC): > 74.2 µM; TGI (HCT-116 colon): > 100 µM; TGI (SF-295 CNS): 10.7 µM; TGI (MOLT-4 leukemia): 59.5 µM; TGI (NCI-H23 lung): 23.1 µM; TGI (T-47D breast): > 77 µM; TGI (SF-539 CNS): 14.1 µM; TGI (SK-OV-3 ovarian): 29.7 µM; TGI (RXF 393 renal): 30.6 µM; TGI (HCT-15 colon): > 47.8 µM; TGI (K-562 leukemia): > 71.4 µM; TGI (OVCAR-8 ovarian): > 42.2 µM; TGI (A549 NSCLC): 20.2 µM; TGI (MALME-3M melanoma): 36.8 µM; TGI (EKVX NSCLC): > 67.2 µM; TGI (SK-MEL-28 melanoma): 22.4 µM; TGI (LOX IMVI melanoma): 13 µM; TGI (COLO 205 colon): 5.23 µM; TGI (ACHN renal): > 72.5 µM; TGI (A498 renal): 17.1 µM; TGI (SK-MEL-2 melanoma): 2.44 µM; TGI (NCI-H226 lung): > 91.2 µM; TGI (TK-10 renal): 10.2 µM; TGI (HT29 colon): > 50.9 µM; TGI (SK-MEL-5 melanoma): > 100 µM; TGI (M14 melanoma): 26.1 µM; TGI (SNB-19 CNS): 17.3 µM; TGI (OVCAR-3 ovarian): 28.7 µM; TGI (MCF7 breast): 8.67 µM; TGI (U251 CNS): 22 µM; TGI (HS 578T breast): 62.9 µM; TGI (OVCAR-5 ovarian): > 92.7 µM; TGI (NCI-H522 lung): 1.33 µM; TGI (BT-549 breast): 31 µM; TGI (MDA-MB-231 breast): 32.2 µM; TGI (HL-60(TB) leukemia): 16 µM; TGI (CAKI-1 renal): > 29 µM; TGI (MDA-N): 20.5 µM; TGI (SF-268 CNS): 21.7 µM; TGI (NCI/ADR-RES ovarian): 16.6 µM; TGI (PC-3 prostate): > 81.6 µM; TGI (786-0 renal): > 100 µM; TGI (HOP-92 NSCLC): 31.9 µM; TGI (SNB-75 CNS): 22.3 µM; TGI (SN12C renal): > 100 µM; TGI (IGROV1 ovarian): 5.05 µM; TGI (SR leukemia): > 86.3 µM; TGI (KM12 colon): 20.5 µM; TGI (DU-145 prostate): > 100 µM; TGI (MDA-MB-435): 8.38 µM; TGI (UACC-257 melanoma): > 77.3 µM; TGI (UO-31 renal): 2.69 µM; TGI (NCI-H460 lung): 17.6 µM; TGI (SW-620 colon): 33.4 µM; TGI (UACC-62 melanoma): 18.8 µM; TGI (RPMI-8226 leukemia): 1.05 µM; TGI (OVCAR-4 ovarian): 30.9 µM

Q: How did the TGI (CCRF-CEM leukemia) turn out when CCOc1ccccc1/C=C(/C#N)C(N)=O was run?
A: 73.7 µM

Q: What about the TGI (HOP-62 NSCLC) of the same compound?
A: > 100 µM

Q: And the TGI (HCT-116 colon)?
A: > 100 µM

Q: And the TGI (SF-295 CNS)?
A: > 100 µM

Q: And the TGI (MOLT-4 leukemia)?
A: > 100 µM

Q: And the TGI (NCI-H23 lung)?
A: > 100 µM

Q: And the TGI (T-47D breast)?
A: > 100 µM

Q: What about the TGI (SF-539 CNS) of the same compound?
A: > 100 µM

Q: What about the TGI (SK-OV-3 ovarian) of the same compound?
A: > 100 µM

Q: What about the TGI (RXF 393 renal) of the same compound?
A: > 100 µM

Q: And the TGI (HCT-15 colon)?
A: > 100 µM

Q: And the TGI (K-562 leukemia)?
A: > 100 µM

Q: And the TGI (OVCAR-8 ovarian)?
A: > 100 µM

Q: What about the TGI (A549 NSCLC) of the same compound?
A: > 100 µM

Q: What about the TGI (MALME-3M melanoma) of the same compound?
A: > 100 µM

Q: What about the TGI (EKVX NSCLC) of the same compound?
A: > 100 µM

Q: What about the TGI (SK-MEL-28 melanoma) of the same compound?
A: > 100 µM

Q: What about the TGI (LOX IMVI melanoma) of the same compound?
A: > 100 µM

Q: What about the TGI (COLO 205 colon) of the same compound?
A: > 100 µM

Q: What about the TGI (ACHN renal) of the same compound?
A: > 100 µM

Q: What about the TGI (A498 renal) of the same compound?
A: > 100 µM

Q: And the TGI (SK-MEL-2 melanoma)?
A: > 100 µM

Q: What about the TGI (NCI-H226 lung) of the same compound?
A: > 100 µM

Q: And the TGI (TK-10 renal)?
A: > 100 µM

Q: And the TGI (HT29 colon)?
A: > 100 µM

Q: And the TGI (SK-MEL-5 melanoma)?
A: > 100 µM

Q: What about the TGI (M14 melanoma) of the same compound?
A: > 100 µM

Q: What about the TGI (SNB-19 CNS) of the same compound?
A: > 100 µM

Q: And the TGI (OVCAR-3 ovarian)?
A: > 100 µM

Q: And the TGI (MCF7 breast)?
A: > 100 µM

Q: What about the TGI (U251 CNS) of the same compound?
A: > 100 µM

Q: And the TGI (HS 578T breast)?
A: > 100 µM

Q: What about the TGI (OVCAR-5 ovarian) of the same compound?
A: > 100 µM

Q: And the TGI (NCI-H522 lung)?
A: > 100 µM

Q: And the TGI (BT-549 breast)?
A: > 100 µM

Q: And the TGI (MDA-MB-231 breast)?
A: > 100 µM

Q: And the TGI (HL-60(TB) leukemia)?
A: > 100 µM

Q: And the TGI (CAKI-1 renal)?
A: > 100 µM

Q: What about the TGI (MDA-N) of the same compound?
A: 45.7 µM

Q: And the TGI (SF-268 CNS)?
A: > 100 µM

Q: What about the TGI (NCI/ADR-RES ovarian) of the same compound?
A: > 100 µM

Q: What about the TGI (PC-3 prostate) of the same compound?
A: > 100 µM

Q: What about the TGI (786-0 renal) of the same compound?
A: > 100 µM

Q: What about the TGI (HOP-92 NSCLC) of the same compound?
A: > 100 µM

Q: What about the TGI (SNB-75 CNS) of the same compound?
A: > 100 µM

Q: What about the TGI (SN12C renal) of the same compound?
A: > 100 µM

Q: What about the TGI (IGROV1 ovarian) of the same compound?
A: > 100 µM

Q: What about the TGI (SR leukemia) of the same compound?
A: > 100 µM

Q: What about the TGI (KM12 colon) of the same compound?
A: > 100 µM

Q: And the TGI (DU-145 prostate)?
A: > 100 µM

Q: What about the TGI (MDA-MB-435) of the same compound?
A: 41.9 µM

Q: What about the TGI (UACC-257 melanoma) of the same compound?
A: > 100 µM

Q: What about the TGI (UO-31 renal) of the same compound?
A: > 100 µM

Q: And the TGI (NCI-H460 lung)?
A: > 100 µM

Q: And the TGI (SW-620 colon)?
A: > 100 µM

Q: And the TGI (UACC-62 melanoma)?
A: > 100 µM

Q: And the TGI (RPMI-8226 leukemia)?
A: > 100 µM

Q: What about the TGI (OVCAR-4 ovarian) of the same compound?
A: > 100 µM
